Data as given in US8715653B2, “Modulation of Rhamm (CD168) for selective adipose tissue development” (The Regents of the University of California, priority 2006, dated 2014).
“Also recorded” adds a separate entry of the source.

Key:
[1] = tested on: rat excisional skin wounds; assay: Wound site (sub-cutaneous) adipogenesis in full thickness excisional wounds covered with collagen gel; type: in vivo; details: for adipogenesis within the wound site: rat excisional wounds, peptide in collagen gel, 14 days after wounding, histology
Protocol: FIG. 14. Effect of a hyaluronan binding peptide on wound site (sub-cutaneous) adipogenesis. A. Full thickness excisional wounds were placed on the flanks of male Fisher rats then these were covered with collagen gels (matrix) containing either no peptide (matrix), hyaluronan binding peptide (at 200, 20 and 2 ug/woundsite) or scrambled peptide (at 200 ug/woundsite). The wound sites were excised 14 days after wounding and processed for histology. Micrographs show Mason Trichrome stained tissue sections through the center of the wounds.
Wt and Rh-/- mice (3-18 month old) or male Sprague-Dawley rats were anaesthetized by Halothane inhalation. Two full thickness wounds were placed on denuded back skin using a 4 mm metal punch. In the case of the rat experiments, 200 ul of a vitrogen solution (type 1 collagen solution that gels at 35-37C) containing no peptide, 2-200 μg hyaluronan binding peptide or scrambled peptide was used to cover the wounds. Animals were housed in individual cages for the experimental period. Wounds were harvested at varying times using a 8 mm metal punch from similar locations on the backs of mice of the same gender and age. Harvested wounds were fixed overnight in 4% paraformaldehyde and paraffin embedded as described in Tolg, C., et al. 2003. Genetic deletion of receptor for hyaluronan-mediated motility (Rhamm) attenuates the formation of aggressive fibromatosis (desmoid tumor). Oncogene 22:6873-6882;. Numbered serial sections were cut perpendicular to the wound edge starting at the wound center. The first and last sections were stained with Masson's trichrome and non-stained sections were used for immunohistochemistry. To ensure that serial sections were cut starting at the wound center, wound samples were cut in half through the wound center prior to embedding

[2] = tested on: uninjured skin of male Fisher rats; assay: Subcutaneous fat after injection in collagen solution under uninjured skin; type: in vivo; details: uninjured rat skin, injected in type 1 collagen solution, harvested 4, 7 and 14 days after injection
Protocol: 0.2 , 2 and 20 ug of hyaluronan binding peptide or scrambled peptide were mixed in 1 ml of type 1 collagen solution, (3 mg/m1) and 0.25 ml of the solution was injected under the skin on the flanks of 3 month old male Fisher rats. Hair at the site of injection was removed prior to injection using Nair for marking purposes. Injection sites were harvested by skin punches at 4, 7 and 14 days after injection.

Rh-/- fibroblasts [3] = assay: Disassembly of phalloidin-positive actin stress fibers in response to PDGF-BB; type: cell-based, mouse
Text: (§1) Tissue sections were stained for collagen (Masson's trichrome), α-smooth muscle actin, vimentin and tenascin following manufacturer's recommendations. Staining was quantified after counter-staining with Harris Hematoxylin (EM SCIENCE) and mounting in Cytoseal 60 (Tullberg-Reinert, H., and Jundt, G. 1999. In situ measurement of collagen synthesis by human bone cells with a sirius red-based colorimetric microassay: effects of transforming growth factor beta2 and ascorbic acid 2-phosphate. Histochem Cell Biol 112:271-276). Immunofluorescence of phospho-ERK1,2 was done as previously published (49). For the detection of droplets of neutral lipids, paraformaldehyde-fixed cells were stained with BODIPY 493/503 (25 μg/ml) (Gocze, P. M., and Freeman, D. A. 1994. Factors underlying the variability of lipid droplet fluorescence in MA-10 Leydig tumor cells. Cytometry 17:151-158). Actin stress fibers were detected with Oregon-green phalloidin.
(§2) Cell migration and invasion require the rapid assembly/disassembly of the actin cytoskeleton. Since intracellular Rhamm forms associate with the actin cytoskeleton and are required for v-src-mediated actin cytoskeleton disassembly, we compared the ability of Rh-/- fibroblasts with Rh^FL-rescued fibroblasts to disassemble phalloidin-positive actin stress fibers in response to PDGF-BB. […]

Wt fibroblasts [4] = assay: as above; type: cell-based, mouse
Text: as §1, §2

Rh-/- fibroblasts [5] = assay: Random motility of fibroblasts by time-lapse cinemicrography; type: cell-based, mouse
Protocol: (§3) Cell culture medium and culture conditions were described previously in Zhang, S., Chang, M. C., Zylka, D., Turley, S., Harrison, R., and Turley, E. A. 1998. The hyaluronan receptor RHAMM regulates extracellular-regulated kinase. J Biol Chem 273:11342-11348; and Tolg, C., et al. 2003. Genetic deletion of receptor for hyaluronan-mediated motility (Rhamm) attenuates the formation of aggressive fibromatosis (desmoid tumor). Oncogene 22:6873-6882. PDGF-BB (25 ng/ml), HA (500 ng/ml-1 mg/ml) or FCS (10%) were added to 24 hrs serum-starved, 50% sub-confluent fibroblasts on fibronectin (25 μg/ml)-coated dishes (Zhang, S., Chang, M. C., Zylka, D., Turley, S., Harrison, R., and Turley, E. A. 1998. The hyaluronan receptor RHAMM regulates extracellular-regulated kinase. J Biol Chem 273:11342-11348; Hall, C. L., Lange, L. A., Prober, D. A., Zhang, S., and Turley, E. A. 1996. pp60(c-src) is required for cell locomotion regulated by the hyaluronanreceptor RHAMM. Oncogene 13:2213-2224). […]
(§4) For experiments assessing the motogenic effects of HA and PDGF-BB, cells were plated onto fibronectin-coated tissue culture flasks at 50% sub-confluence overnight then serum-starved for 24 hrs. […] For quantifying the effect of FCS, fibroblasts were plated at 50% sub-confluence overnight onto tissue culture dishes that had been pre-coated with serum proteins. […]
(§5) Efficient repair of excisional wounds also depends upon motility speed in response to motogens present in the microenvironment (See Ridley, A. J., Schwartz, M. A., Burridge, K., Firtel, R. A., Ginsberg, M. H., Borisy, G., Parsons, J. T., and Horwitz, A. R. 2003. Cell migration: integrating signals from front to back. Science 302:1704-1709). The velocity of migration stimulated by HA (FIG. 6A) or FCS (FIGS. 9A, 9B) was assessed directly using time-lapse cinemicrography of cells cultured on fibronectin-coated 2D tissue culture surfaces (Hall, C. L., Lange, L. A., Prober, D. A., Zhang, S., and Turley, E. A. 1996. pp60(c-src) is required for cell locomotion regulated by the hyaluronanreceptor RHAMM. Oncogene 13:2213-2224). […]

Wt fibroblasts [6] = assay: as above; type: cell-based, mouse
Protocol: as §3, §4, §5

[7] = listed as Hyaluronan binding peptides

Compound	concentrations that increase subcutaneous adipogenesis ([1]; rat excisional skin wounds)	adipogenesis within the wound site [1]	adipogenesis within the wound site [1, 7]	subcutaneous fat / accumulation of adipocytes at injection site [2]	subcutaneous fat / accumulation of adipocytes at injection site [2, 7]	effect on actin disassembly in response to PDGF-BB (Rh-/- fibroblasts [3])	effect on actin disassembly in response to PDGF-BB (Wt fibroblasts [4])	effect on motility in response to PDGF-BB (Rh-/- fibroblasts [5])	effect on motility in response to PDGF-BB (Wt fibroblasts [6]; Wt fibroblasts, PDGF-BB)	effect on random motility in the presence of FCS (Wt fibroblasts [6]; primary Wt fibroblasts, FCS)
STMMRSHKTRSHHV (Hyaluronan binding peptide.)	20-200 μg/wound site	filled with adipocytes	promoted adipogenesis; also recorded: increase subcutaneous adipogenesis	increases subcutaneous fat	promoted adipogenesis	–	–	–	–	–
COc1cccc(-c2cc(=O)c3ccccc3o2)c1N [PD98059]	–	–	–	–	–	no effect	significantly inhibit	no effect	significantly inhibit	significantly reduce motility
